The values that follow come from the NIST ThermoML archive (doi:10.1016/j.jct.2014.05.005).

In general, mass density refers to the mass of a sample divided by its volume.

± gives the expanded uncertainty stated by the source.

The conditions of series [1]: for Normal melting temperature: Crystal, DTA; for mass density: 298.15 K, 101.33 kPa, Liquid, Vibrating tube method.
Series [2] is described as follows: Molar enthalpy of transition or fusion. The following applies: Crystal; DSC.

For the compound `Cn1c(=O)c2[nH]cnc2n(C)c1=O` [3,7-dihydro-1,3-dimethyl-1H-purine-2,6-dione], the Normal melting temperature in series [1] came out at 271.4 ± 0.4 °C. The “Molar enthalpy of transition or fusion” value in series [2] turned out to be 7.23 ± 0.158 kcal/mol.
For `Cn1c(=O)c2c(ncn2CCO)n(C)c1=O` [7-(2-hydroxyethyl)-1,3-dimethylxanthine] the same measures were 162.7 ± 0.4 °C and 7.8 ± 0.17 kcal/mol.
Regarding `CCO` [ethanol], in series [1], the mass density is on record as 785.12 ± 1 kg/m3.
Still for that read-out and setting: with `CCCCCCCCO` [octan-1-ol] the figure was 822.99 ± 1 kg/m3.
